Data from PubChem BioAssay AID222 (DTP/NCI, 2004).
Where “and” joins values, the source holds several entries; their conditions need not be identical. Identical values can stand only once. Inconclusive results and toxic doses are left out. How the source made its calls: active means survival T/C of 150% or more; inactive means T/C below 125% in these data.

Tested on: C57BL/6 mice, intracerebral ependymoblastoma, median survival T/C
Experiment: NCI In Vivo Anticancer Drug Screen. Data for tumor model Ependymoblastoma (intracerebral) in C57BL/6 mice
Conditions: endpoint: median survival time, higher = longer survival
Method: The antitumor activity of compounds was measured in mice bearing transplantable tumors. Survival or tumor size were measured and the results are expressed as the measurement made in the treated group (T) divided by the measurement made in the vehicle treated control group (C). The tumor model used in this assay is Ependymoblastoma (intracerebral) in C57BL/6 mice

[1] = dose: 100.0 mg/kg/injection, schedule: Q01DX005 (ip), vehicle: saline with Tween-80
[2] = dose: 200.0 mg/kg/injection, schedule: Q01DX005 (ip), vehicle: saline with Tween-80
[3] = dose: 400.0 mg/kg/injection, schedule: Q01DX005 (ip), vehicle: saline with Tween-80

Measured: T/C

CC(C)=CCC1=C(O)c2ccccc2C(=O)C1=O
inactive: dose: 32.0 mg/kg/injection, schedule: Q01DX005 (ip), vehicle: Klucel (hydroxypropylcellulose) (HPC) 100 % of control | dose: 64.0 mg/kg/injection, schedule: Q01DX005 (ip), vehicle: Klucel (hydroxypropylcellulose) (HPC) 94 % of control | dose: 128.0 mg/kg/injection, schedule: Q01DX005 (ip), vehicle: Klucel (hydroxypropylcellulose) (HPC) 97 % of control

C(COCCOCC1CO1)OCCOCC1CO1 (centres undefined)
inactive: dose: 50.0 mg/kg/injection, schedule: Q01DX005 (ip), vehicle: saline with Tween-80 93 % of control | [1] 96 % of control | [2] 96 % of control | [3] 113 % of control

O=NN(CCF)C(=O)NC1CCCCC1
inactive: dose: 10.0 mg/kg/injection, schedule: Q01DX005 (ip), vehicle: suspension in saline 123 % of control
active: dose: 20.0 mg/kg/injection, schedule: Q01DX005 (ip), vehicle: suspension in saline 262 % of control

O=c1c(O)c(-c2ccc(O)c(O)c2)oc2cc(O)cc(O)c12
inactive: dose: 12.5 mg/kg/injection, schedule: Q01DX005 (ip), vehicle: Klucel (hydroxypropylcellulose) (HPC) 95 % of control | dose: 12.5 mg/kg/injection, schedule: Q01DX005 (ip), vehicle: other 107 % of control | dose: 25.0 mg/kg/injection, schedule: Q01DX005 (ip), vehicle: Klucel (hydroxypropylcellulose) (HPC) 104 % of control | dose: 25.0 mg/kg/injection, schedule: Q01DX005 (ip), vehicle: other 93 % of control | dose: 50.0 mg/kg/injection, schedule: Q01DX005 (ip), vehicle: Klucel (hydroxypropylcellulose) (HPC) 100 % of control | dose: 50.0 mg/kg/injection, schedule: Q01DX005 (ip), vehicle: other 91 % of control | dose: 100.0 mg/kg/injection, schedule: Q01DX005 (ip), vehicle: Klucel (hydroxypropylcellulose) (HPC) 99 % of control | dose: 100.0 mg/kg/injection, schedule: Q01DX005 (ip), vehicle: other 102 % of control | dose: 200.0 mg/kg/injection, schedule: Q01DX005 (ip), vehicle: other 105 % of control

Cc1cn(C2CC(O)C(CO)O2)c(=O)[nH]c1=O (centres undefined)
inactive: dose: 64.0 mg/kg/injection, schedule: Q01DX005 (ip), vehicle: saline with Tween-80 92 % of control and 97 % of control | [1] 91 % of control | dose: 128.0 mg/kg/injection, schedule: Q01DX005 (ip), vehicle: saline with Tween-80 90 % of control and 105 % of control | [2] 98 % of control | dose: 256.0 mg/kg/injection, schedule: Q01DX005 (ip), vehicle: saline with Tween-80 95 % of control and 87 % of control | [3] 96 % of control | dose: 512.0 mg/kg/injection, schedule: Q01DX005 (ip), vehicle: saline with Tween-80 100 % of control | dose: 800.0 mg/kg/injection, schedule: Q01DX005 (ip), vehicle: saline with Tween-80 98 % of control | dose: 1024.0 mg/kg/injection, schedule: Q01DX005 (ip), vehicle: saline with Tween-80 100 % of control and 101 % of control | dose: 1600.0 mg/kg/injection, schedule: Q01DX005 (ip), vehicle: saline with Tween-80 98 % of control

CC[C@]12CN3CCc4c([nH]c5ccccc45)[C@@](C(=O)OC)(c4cc5c(cc4OC)N(C)[C@H]4[C@@](O)(C(=O)OC)[C@H](OC(C)=O)[C@]6(CC)C=CCN7CC[C@]54[C@@H]76)CC(C3)[C@H]1O2 (some centres undefined)
inactive: dose: 0.05 mg/kg/injection, schedule: Q01DX005 (ip), vehicle: saline 94 % of control | dose: 0.1 mg/kg/injection, schedule: Q01DX005 (ip), vehicle: saline 93 % of control | dose: 0.2 mg/kg/injection, schedule: Q01DX005 (ip), vehicle: saline 93 % of control | dose: 0.4 mg/kg/injection, schedule: Q01DX005 (ip), vehicle: saline 108 % of control | dose: 0.8 mg/kg/injection, schedule: Q01DX005 (ip), vehicle: saline 103 % of control | dose: 1.6 mg/kg/injection, schedule: Q01DX005 (ip), vehicle: saline 103 % of control | dose: 3.2 mg/kg/injection, schedule: Q01DX005 (ip), vehicle: saline 113 % of control | dose: 6.4 mg/kg/injection, schedule: Q01DX005 (ip), vehicle: saline 103 % of control | dose: 12.8 mg/kg/injection, schedule: Q01DX005 (ip), vehicle: saline 103 % of control

O=C(CCCN1CCC(O)(c2cccc(C(F)(F)F)c2)CC1)c1ccc(F)cc1
inactive: dose: 25.0 mg/kg/injection, schedule: Q04DX003 (ip), vehicle: Klucel (hydroxypropylcellulose) (HPC) 103 % of control | dose: 50.0 mg/kg/injection, schedule: Q04DX003 (ip), vehicle: Klucel (hydroxypropylcellulose) (HPC) 97 % of control
